We go through 15 molecules from patent US20250235543A1, “MODIFIED PROTEINS AND PROTEIN DEGRADERS” (Cullgen (Shanghai), Inc., priority 2021, published 2025).

One test addresses T1, CDK4 (Homo sapiens, UniProt P11802).
T1 construct: endogenous in cells; host or cells: Calu-1
Description: CDK4 percentage degradation in Calu-1 cells (immunoblotting). In kind it is cell-based. To be noted: Calu-1 cells, 10 μM, 16 hours; read-out: CDK4 Degradation (10 μM). In short, it runs like this: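 Cultured cells were rinsed once in cold PBS and lysed in cold RIPA buffer containing protease and phosphatase inhibitors, with gentle agitation at 4° C. for 30 min. Lysates were centrifuged at 13,000 rpm for 10 min at 4° C., and protein was quantified by BCA. Samples were then separated by SDS-PAGE, detected with ECL, and the CDK4 bands quantified in Image Lab.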
(Immunoblotting shows a protein as a band on a membrane.)

In another test the test system is cyclin D1. Description: Cyclin D1 percentage degradation in Calu-1 cells (immunoblotting). In kind it is cell-based. To be noted: 10 μM, 16 hours. An outline of the steps:
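Cells were rinsed once in cold PBS and lysed in cold RIPA buffer containing protease and phosphatase inhibitors, with gentle agitation at 4° C. for 30 min. Lysates were spun at 13,000 rpm for 10 min at 4° C., protein was measured by BCA, and samples were boiled in Laemmli buffer at 99° C. for 5 min before SDS-PAGE immunoblotting.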

T1 sequence (P11802 2-303 limits assumed): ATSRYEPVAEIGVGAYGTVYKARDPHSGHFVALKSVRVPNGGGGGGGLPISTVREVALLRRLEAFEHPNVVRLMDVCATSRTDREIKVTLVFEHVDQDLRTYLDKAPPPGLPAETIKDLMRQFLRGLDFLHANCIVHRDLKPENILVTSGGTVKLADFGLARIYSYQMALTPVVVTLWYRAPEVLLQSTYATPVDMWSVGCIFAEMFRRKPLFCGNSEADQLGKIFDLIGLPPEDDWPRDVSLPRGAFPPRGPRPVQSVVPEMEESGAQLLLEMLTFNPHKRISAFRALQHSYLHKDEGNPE
T1 sequence (P24385 whole entry partner): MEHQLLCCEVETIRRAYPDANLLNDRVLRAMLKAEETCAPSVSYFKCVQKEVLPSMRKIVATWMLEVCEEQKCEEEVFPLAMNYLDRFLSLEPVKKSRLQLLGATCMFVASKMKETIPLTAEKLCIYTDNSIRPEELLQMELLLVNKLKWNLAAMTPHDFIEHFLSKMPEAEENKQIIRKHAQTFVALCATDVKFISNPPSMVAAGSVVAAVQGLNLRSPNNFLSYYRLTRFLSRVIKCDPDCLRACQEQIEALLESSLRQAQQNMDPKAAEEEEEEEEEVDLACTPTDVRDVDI
T1 sequence (Q16531 2-1140 limits assumed, further chain): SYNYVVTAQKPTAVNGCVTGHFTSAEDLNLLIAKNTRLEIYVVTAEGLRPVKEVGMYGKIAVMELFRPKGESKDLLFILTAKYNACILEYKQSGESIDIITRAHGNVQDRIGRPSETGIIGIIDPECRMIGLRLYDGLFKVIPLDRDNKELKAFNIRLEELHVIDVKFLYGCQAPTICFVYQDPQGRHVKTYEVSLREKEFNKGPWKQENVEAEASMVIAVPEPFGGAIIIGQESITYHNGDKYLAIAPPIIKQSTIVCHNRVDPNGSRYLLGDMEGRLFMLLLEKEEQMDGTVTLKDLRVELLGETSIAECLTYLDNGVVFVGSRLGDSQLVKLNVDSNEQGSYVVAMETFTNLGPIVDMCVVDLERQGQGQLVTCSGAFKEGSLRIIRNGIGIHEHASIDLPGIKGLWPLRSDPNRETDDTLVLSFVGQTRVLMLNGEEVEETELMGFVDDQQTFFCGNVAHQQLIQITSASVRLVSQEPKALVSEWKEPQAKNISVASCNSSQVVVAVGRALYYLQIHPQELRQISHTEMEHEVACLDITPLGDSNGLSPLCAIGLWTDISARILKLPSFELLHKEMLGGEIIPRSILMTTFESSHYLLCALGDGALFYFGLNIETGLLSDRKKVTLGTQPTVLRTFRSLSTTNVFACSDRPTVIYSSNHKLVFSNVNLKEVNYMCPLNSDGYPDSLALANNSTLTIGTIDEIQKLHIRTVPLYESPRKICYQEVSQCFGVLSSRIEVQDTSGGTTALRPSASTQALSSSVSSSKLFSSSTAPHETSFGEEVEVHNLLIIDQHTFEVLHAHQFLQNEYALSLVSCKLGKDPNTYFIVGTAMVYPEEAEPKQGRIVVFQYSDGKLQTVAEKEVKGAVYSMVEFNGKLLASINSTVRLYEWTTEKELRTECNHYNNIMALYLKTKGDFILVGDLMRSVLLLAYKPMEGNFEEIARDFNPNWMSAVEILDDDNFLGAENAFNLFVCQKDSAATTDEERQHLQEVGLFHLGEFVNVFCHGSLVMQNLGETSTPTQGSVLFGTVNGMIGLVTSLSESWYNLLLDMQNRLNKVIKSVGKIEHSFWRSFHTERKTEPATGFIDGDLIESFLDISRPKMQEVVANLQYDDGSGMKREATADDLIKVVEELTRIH

In the case of `Cc1nc(NC(=O)c2ccccc2NC(=O)CCCCCCNC(=O)CN2CCN(c3ccc(Nc4ncc5cc(C(=O)N(C)C)n(C6CCCC6)c5n4)nc3)CC2)sc1C` [CPD-291, 7-Cyclopentyl-2-((5-(4-(2-((7-((2-((4,5-dimethylthiazol-2-yl)carbamoyl)phenyl)amino)-7-oxoheptyl)amino)-2-oxoethyl)piperazin-1-yl)pyridin-2-yl)amino)-N,N-dimethyl-7H-pyrrolo[2,3-d]pyrimidine-6-carboxamide], the inhibition at 10 µM on CDK4 was 30 to 50%. Further, the “CyclinD1 Degradation (10 μM)” value with cyclin D1 was “B (protein percentage degradation < 80%, and >= 50%)”.
On to `Cc1nc(NC(=O)c2ccccc2NC(=O)CCCCCCCNC(=O)CN2CCN(c3ccc(Nc4ncc5cc(C(=O)N(C)C)n(C6CCCC6)c5n4)nc3)CC2)sc1C` [CPD-292, 7-Cyclopentyl-2-((5-(4-(2-((8-((2-((4,5-dimethylthiazol-2-yl)carbamoyl)phenyl)amino)-8-oxooctyl)amino)-2-oxoethyl)piperazin-1-yl)pyridin-2-yl)amino)-N,N-dimethyl-7H-pyrrolo[2,3-d]pyrimidine-6-carboxamide], for which the inhibition at 10 µM on CDK4 is < 30%. In addition, in the test with cyclin D1, the “CyclinD1 Degradation (10 μM)” value was “B (protein percentage degradation < 80%, and >= 50%)”.
As to `Cc1nc(NC(=O)c2ccccc2NC(=O)CCCCCCCCNC(=O)CN2CCN(c3ccc(Nc4ncc5cc(C(=O)N(C)C)n(C6CCCC6)c5n4)nc3)CC2)sc1C` [CPD-293, 7-Cyclopentyl-2-((5-(4-(2-((9-((2-((4,5-dimethylthiazol-2-yl)carbamoyl)phenyl)amino)-9-oxononyl)amino)-2-oxoethyl)piperazin-1-yl)pyridin-2-yl)amino)-N,N-dimethyl-7H-pyrrolo[2,3-d]pyrimidine-6-carboxamide], at CDK4, the inhibition at 10 µM fell in the range of 50 to 80%. Further, in the test on cyclin D1, the “CyclinD1 Degradation (10 μM)” value is “A (protein percentage degradation >= 80%)”.
`Cc1nc(NC(=O)c2ccccc2NC(=O)CCOCCNC(=O)CN2CCN(c3ccc(Nc4ncc5cc(C(=O)N(C)C)n(C6CCCC6)c5n4)nc3)CC2)sc1C` [CPD-294, 7-Cyclopentyl-2-((5-(4-(2-((2-(3-((2-((4,5-dimethylthiazol-2-yl)carbamoyl)phenyl)amino)-3-oxopropoxy)ethyl)amino)-2-oxoethyl)piperazin-1-yl)pyridin-2-yl)amino)-N,N-dimethyl-7H-pyrrolo[2,3-d]pyrimidine-6-carboxamide]: at CDK4, the inhibition at 10 µM lay in the range of 50 to 80%. Besides, the “CyclinD1 Degradation (10 μM)” value in the test with cyclin D1 is “A (protein percentage degradation >= 80%)”.
The corresponding values for `Cc1nc(NC(=O)c2ccccc2NC(=O)CCOCCOCCNC(=O)CN2CCN(c3ccc(Nc4ncc5cc(C(=O)N(C)C)n(C6CCCC6)c5n4)nc3)CC2)sc1C` [CPD-295, 7-Cyclopentyl-2-((5-(4-(2-((2-(2-(3-((2-((4,5-dimethylthiazol-2-yl)carbamoyl)phenyl)amino)-3-oxopropoxy)ethoxy)ethyl)amino)-2-oxoethyl)piperazin-1-yl)pyridin-2-yl)amino)-N,N-dimethyl-7H-pyrrolo[2,3-d]pyrimidine-6-carboxamide] are 50 to 80% and “A (protein percentage degradation >= 80%)”.
The corresponding values for `Cc1nc(NC(=O)c2ccccc2NC(=O)CCOCCOCCOCCNC(=O)CN2CCN(c3ccc(Nc4ncc5cc(C(=O)N(C)C)n(C6CCCC6)c5n4)nc3)CC2)sc1C` [CPD-296, 7-Cyclopentyl-2-((5-(4-(15-((2-((4,5-dimethylthiazol-2-yl)carbamoyl)phenyl)amino)-2,15-dioxo-6,9,12-trioxa-3-azapentadecyl)piperazin-1-yl)pyridin-2-yl)amino)-N,N-dimethyl-7H-pyrrolo[2,3-d]pyrimidine-6-carboxamide] are 50 to 80% and “A (protein percentage degradation >= 80%)”.
As for `Cc1nc(NC(=O)c2ccccc2NC(=O)CCOCCOCCOCCOCCNC(=O)CN2CCN(c3ccc(Nc4ncc5cc(C(=O)N(C)C)n(C6CCCC6)c5n4)nc3)CC2)sc1C` [CPD-297, 7-Cyclopentyl-2-((5-(4-(18-((2-((4,5-dimethylthiazol-2-yl)carbamoyl)phenyl)amino)-2,18-dioxo-6,9,12,15-tetraoxa-3-azaoctadecyl)piperazin-1-yl)pyridin-2-yl)amino)-N,N-dimethyl-7H-pyrrolo[2,3-d]pyrimidine-6-carboxamide], at CDK4, the inhibition at 10 µM is 50 to 80%. In addition, the “CyclinD1 Degradation (10 μM)” value in the test with cyclin D1 is on record as “A (protein percentage degradation >= 80%)”.
The corresponding values for `Cc1nc(NC(=O)c2ccccc2NC(=O)CCOCCOCCOCCOCCOCCNC(=O)CN2CCN(c3ccc(Nc4ncc5cc(C(=O)N(C)C)n(C6CCCC6)c5n4)nc3)CC2)sc1C` [CPD-298, 7-Cyclopentyl-2-((5-(4-(21-((2-((4,5-dimethylthiazol-2-yl)carbamoyl)phenyl)amino)-2,21-dioxo-6,9,12,15,18-pentaoxa-3-azahenicosyl)piperazin-1-yl)pyridin-2-yl)amino)-N,N-dimethyl-7H-pyrrolo[2,3-d]pyrimidine-6-carboxamide] are 50 to 80% and “A (protein percentage degradation >= 80%)”.
As for `Cc1nc(NC(=O)c2ccccc2NC(=O)CCOCCOCCOCCOCCOCCOCCNC(=O)CN2CCN(c3ccc(Nc4ncc5cc(C(=O)N(C)C)n(C6CCCC6)c5n4)nc3)CC2)sc1C` [CPD-299, 7-Cyclopentyl-2-((5-(4-(24-((2-((4,5-dimethylthiazol-2-yl)carbamoyl)phenyl)amino)-2,24-dioxo-6,9,12,15,18,21-hexaoxa-3-azatetracosyl)piperazin-1-yl)pyridin-2-yl)amino)-N,N-dimethyl-7H-pyrrolo[2,3-d]pyrimidine-6-carboxamide], the inhibition at 10 µM at CDK4 was 30 to 50%. Also, the “CyclinD1 Degradation (10 μM)” value with cyclin D1 was “B (protein percentage degradation < 80%, and >= 50%)”.
Consider `Cc1nc(NC(=O)c2ccccc2NC(=O)CNC(=O)CN2CCN(c3ccc(Nc4ncc(F)c(-c5cc(F)c6nc(C)n(C(C)C)c6c5)n4)nc3)CC2)sc1C` [CPD-300, N-(4,5-Dimethylthiazol-2-yl)-2-(2-(2-(4-(6-((5-fluoro-4-(4-fluoro-1-isopropyl-2-methyl-1H-benzo[d]imidazol-6-yl)pyrimidin-2-yl)amino)pyridin-3-yl)piperazin-1-yl)acetamido)acetamido)benzamide], for which, on CDK4, the inhibition at 10 µM was < 30%. Also, in the test with cyclin D1, the “CyclinD1 Degradation (10 μM)” value is reported as “D (protein percentage degradation < 30%)”.
The corresponding values for `Cc1nc(NC(=O)c2ccccc2NC(=O)CCNC(=O)CN2CCN(c3ccc(Nc4ncc(F)c(-c5cc(F)c6nc(C)n(C(C)C)c6c5)n4)nc3)CC2)sc1C` [CPD-301, N-(4,5-Dimethylthiazol-2-yl)-2-(3-(2-(4-(6-((5-fluoro-4-(4-fluoro-1-isopropyl-2-methyl-1H-benzo[d]imidazol-6-yl)pyrimidin-2-yl)amino)pyridin-3-yl)piperazin-1-yl)acetamido)propanamido)benzamide] are < 30% and “D (protein percentage degradation < 30%)”.
The corresponding values for `Cc1nc(NC(=O)c2ccccc2NC(=O)CCCNC(=O)CN2CCN(c3ccc(Nc4ncc(F)c(-c5cc(F)c6nc(C)n(C(C)C)c6c5)n4)nc3)CC2)sc1C` [CPD-302, N-(4,5-Dimethylthiazol-2-yl)-2-(4-(2-(4-(6-((5-fluoro-4-(4-fluoro-1-isopropyl-2-methyl-1H-benzo[d]imidazol-6-yl)pyrimidin-2-yl)amino)pyridin-3-yl)piperazin-1-yl)acetamido)butanamido)benzamide] are < 30% and “D (protein percentage degradation < 30%)”.
The corresponding values for `Cc1nc(NC(=O)c2ccccc2NC(=O)CCCCNC(=O)CN2CCN(c3ccc(Nc4ncc(F)c(-c5cc(F)c6nc(C)n(C(C)C)c6c5)n4)nc3)CC2)sc1C` [CPD-303, N-(4,5-Dimethylthiazol-2-yl)-2-(5-(2-(4-(6-((5-fluoro-4-(4-fluoro-1-isopropyl-2-methyl-1H-benzo[d]imidazol-6-yl)pyrimidin-2-yl)amino)pyridin-3-yl)piperazin-1-yl)acetamido)pentanamido)benzamide] are < 30% and “D (protein percentage degradation < 30%)”.
With `Cc1nc(NC(=O)c2ccccc2NC(=O)CCCCCNC(=O)CN2CCN(c3ccc(Nc4ncc(F)c(-c5cc(F)c6nc(C)n(C(C)C)c6c5)n4)nc3)CC2)sc1C` [CPD-304, N-(4,5-Dimethylthiazol-2-yl)-2-(6-(2-(4-(6-((5-fluoro-4-(4-fluoro-1-isopropyl-2-methyl-1H-benzo[d]imidazol-6-yl)pyrimidin-2-yl)amino)pyridin-3-yl)piperazin-1-yl)acetamido)hexanamido)benzamide], the inhibition at 10 µM at CDK4 was < 30%. Also, the “CyclinD1 Degradation (10 μM)” value with cyclin D1 is given as “D (protein percentage degradation < 30%)”.
The corresponding values for `Cc1nc(NC(=O)c2ccccc2NC(=O)CCCCCCNC(=O)CN2CCN(c3ccc(Nc4ncc(F)c(-c5cc(F)c6nc(C)n(C(C)C)c6c5)n4)nc3)CC2)sc1C` [CPD-305, N-(4,5-Dimethylthiazol-2-yl)-2-(7-(2-(4-(6-((5-fluoro-4-(4-fluoro-1-isopropyl-2-methyl-1H-benzo[d]imidazol-6-yl)pyrimidin-2-yl)amino)pyridin-3-yl)piperazin-1-yl)acetamido)heptanamido)benzamide] are < 30% and “D (protein percentage degradation < 30%)”.
